# In paper PMC5444710, “Enhancement of radiosensitivity by the novel anticancer quinolone derivative vosaroxin in preclinical glioblastoma models” (Oncotarget, 2017):
# Assays:
# [1] = tested on: U251 xenografts; assay: Subcutaneous xenograft model: tumor weight and time to progression; type: in vivo, female CD1-nu/nu mice; conditions: for HR (95% CI) for tumor progression: U251
# Experimental: Female CD1-nu/nu mice, at 6 weeks of age, were purchased from Charles River (Milan, Italy) under the guidelines established by our institution (University of L’Aquila, Medical School and Science and Technology School Board Regulations, complying with Italian government regulation n.116, January 27, 1992, for the use of laboratory animals). All mice received subcutaneous flank injections (2 each) of 1 × 10^6 U251, U87MG, and T98G cells representing models for MGMT-negative and MGMT-positive cells. Tumor growth was assessed biweekly by measuring tumor diameters with a Vernier caliper (length × width). Tumor weight was calculated according to the formula tumor weight (mg) = tumor volume (mm^3) = d2 × D/2, where d and D are the shortest and longest diameters, respectively. The effects of the treatments were assessed as previously described. At about 10 days after the tumor injection, 30 mice with tumor volumes of 0.5–0.8 cm^3 were randomly divided into 6 groups (5 mice per group with 2 tumors each): (1) control (vehicle); (2) vosaroxin (10 mg/kg every 5 days for 5 weeks intravenous [IV] injection into tail vein; (3) radiotherapy (RT; 4 Gy delivered in a single fraction); (4) vosaroxin in combination with RT; (5) temozolomide (16 mg/kg 5 consecutive days) and (6) temozolomide in combination with RT. Anesthetized tumor-bearing mice received focal irradiation. Irradiation was delivered using an x-ray linear accelerator at a dose rate of 200 cGy/min at room temperature. All mice were shielded with a specially designed lead apparatus to allow irradiation to the right hind limb. At the end of the study (35 days after the start of treatments), animals were sacrificed by carbon dioxide inhalation and tumors were then removed surgically. Half of the tumor was directly frozen in liquid nitrogen for protein analysis and the other half was fixed in paraformaldehyde overnight for immunohistochemical analyses.
# The following parameters were used to quantify the antitumor effects of different treatments as previously described: tumor volume, measured throughout the experiment; tumor weight, measured at the end of the experiment; tumor progression, defined as an increase of greater than 50% of tumor volume with respect to baseline; and time to progression (TTP), defined as the time until tumor progression was observed from baseline. Tumor size was measured with calipers and the TTP of a single tumor was calculated. TTP data were used to generate Kaplan-Meier curves for progression. This method of analysis was described previously, and may reduce both inter-subject variability resulting from differences in engraftment efficacy as well as intra-subject variability in response.
# In vivo drug combination studies were evaluated using CalcuSyn. For CI calculations of dual administration, the values of % cell kill (%CK) for a fixed tumor volume were determined by the log CK (LCK). LCK was calculated as LCK = (T − C) / (3.32 × Td), where Td represented the mean control group doubling time required to reach a fixed tumor volume, expressed in days. T and C were the mean times in days required to reach the same fixed tumor volume in the treated group and the control group, respectively. CK was calculated as %CK = [1 − (1 − 10LCK)] × 100. Tumor growth delay (TGD) was calculated as %TGD = [(T − C) / C] × 100, where T and C were the same values as those reported by Bruzzese et al..
# [2] = tested on: T98G xenografts; assay: Cytokine expression in xenograft tissue extracts (ELISA); type: in vivo, female CD1-nu/nu mice; conditions: T98G xenograft tissue extract
# Experimental: (§1) After appropriate treatments, tumor cell cultures and tissues were harvested for analysis of cytokine expression. Cell pellets were washed with PBS and lysed with RIPA buffer. Cell lysates and conditioned media were assayed by ELISA to measure (i) active human caspase-3 (CBA045, Merck Chemicals Ltd., Nottingham, UK), (ii) beclin-1 (E98557Hu, USCN Life Sciences, Houston, TX, USA), and (iii) DNA damage (EpiQuik in situ DNA Damage Assay Kit, Epigentek, Farmingdale, NY, USA). Tumor extracts were analyzed for the presence of:
# (§2) • MMP-2 (KHC3081) • TNF-α (KHC3011, Life Technologies Italia, Monza, Italy) • CXCR4 (Cyto Glow CXCR4 [pSer339], cell-based ELISA, Assay Biotech, Sunnyvale, CA, USA) • Human Fas ligand (ELH-FASL, RayBiotech, Norcross, GA, USA) • IL-6 (orb50052) and survivin (orb50135) (Biorbyt) • TGF-β1 (Quantikine ELISA Kit, DB100B, R&D Systems, Minneapolis, MN, USA) • SDF-1α (Human CXCL12/SDF-1α Quantikine ELISA Kit, DSA00, R&D Systems) • Mouse IL-10 DuoSet ELISA DY417 (R&D Systems Minneapolis, MN, USA) • Mouse NOS2 / iNOS ELISA Kit (Sandwich ELISA) - LS-F12166 (LifeSpan Biosciences, Inc, Seattle, WA, USA) • Mouse ARG1 / Arginase-1 ELISA Kit (Sandwich ELISA) - LS-F10883 (LifeSpan Biosciences, Inc, Seattle, WA, USA)
# (§3) All determinations were performed in triplicate, according to manufacturers’ instructions. Data are presented as mean ± SE. Cytokine secretion determined by ELISA was normalized to total protein concentration in tissue lysates.
# [3] = tested on: U251 xenografts; assay: as above; type: in vivo, female CD1-nu/nu mice; conditions: U251 xenograft tissue extract
# Experimental: as §1, §2, §3
# [4] = tested on: U87MG xenografts; assay: as above; type: in vivo, female CD1-nu/nu mice; conditions: U87MG xenograft tissue extract
# Experimental: as §1, §2, §3
# [5] = tested on: U87MG, U251, and T98G cells; assay: Autophagy: acidic vesicular organelle (AVO) staining; type: cell-based, human; conditions: vosaroxin at IC20 for each cell line added to RT 4 Gy; 24 hours
# Description: As a marker of autophagy we evaluated the presence of AVOs after staining of cell cultures with LysoTracker® Red DND-99 kit (Life Technologies Italia, Monza, Italy) according to the manufacturer’s instructions. The intensity of the red fluorescence is proportional to the degree of acidity. The percentage of autophagic cells was quantified with the Tali® Image-Based Cytometer (Life Technologies) measuring fluorescence emission at 590 nm with fluorescence excitation at 577 nm. The results were expressed as the percentage of cell AVOs stained in controls and in treated cultures.
smiles,measurement,setting,value
CN[C@H]1CN(c2ccc3c(=O)c(C(=O)O)cn(-c4nccs4)c3n2)C[C@@H]1OC [vosaroxin],final tumor weight reduction compared with vehicle controls,"[1]; U251 xenografts, day 35, VSR 10 mg/kg q 5 d for 5 wk IV, TMZ 16 mg/kg 5 consecutive days, RT single 4 Gy",42%
same,HR (95% CI) for tumor progression,[1]; VSR vs TMZ + RT,4.2 (1.4–12.5)
same,HR (95% CI) for tumor progression,[1]; VSR vs TMZ,0.6 (0.3–1.6)
same,HR (95% CI) for tumor progression,[1]; VSR vs VSR + RT,4.0 (1.3–12.1)
same,Human IL-6,[2],30 ± 3 pg/mg tissue
same,Human TGF-β1,[2],27 ± 3
same,Human TNF-α,[2],3 ± 1 pg/mg tissue
same,Human and mouse IL-8,[2],440 ± 30 pg/mg tissue
same,Mouse IL-1β,[2],27 ± 4 pg/mg tissue
same,Mouse IL-10,[2],< 1.0
same,Mouse SDF-1α,[2],12 ± 4
same,Human IL-6,[3],33 ± 8 pg/mg tissue
same,Human TGF-β1,[3],35 ± 6
same,Human TNF-α,[3],7 ± 1 pg/mg tissue
same,Human and mouse IL-8,[3],275 ± 35 pg/mg tissue
same,Mouse IL-1β,[3],44 ± 5 pg/mg tissue
same,Mouse IL-10,[3],5.2 ± 0.6
same,Mouse SDF-1α,[3],32 ± 3
same,Human IL-6,[4],78 ± 13 pg/mg tissue
same,Human TGF-β1,[4],47 ± 8
same,Human TNF-α,[4],17 ± 3 pg/mg tissue
same,Human and mouse IL-8,[4],715 ± 37 pg/mg tissue
same,Mouse IL-1β,[4],85 ± 10 pg/mg tissue
same,Mouse IL-10,[4],6.2 ± 0.5
same,Mouse SDF-1α,[4],18 ± 3
same,RT-induced AVO staining,[5],reduced
